Test results from PubChem BioAssay (NCI).
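Briefly, cells in 96-well plates were exposed to five compound concentrations for 48 h, and endpoints were estimated by linear interpolation. Abbreviation: GI50, concentration required for 50% inhibition of growth. TGI: concentration producing complete growth inhibition.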

What was measured:
Assay in all cases: growth of human tumour cells (NCI), 48 h
K-562 leukemia = test system: K-562 leukemia
SF-268 CNS = test system: SF-268 CNS
SF-539 CNS = test system: SF-539 CNS
HCT-116 colon = test system: HCT-116 colon
ACHN renal = test system: ACHN renal
NCI-H23 lung = test system: NCI-H23 lung
U251 CNS = test system: U251 CNS
HL-60(TB) leukemia = test system: HL-60(TB) leukemia
KM12 colon = test system: KM12 colon
SNB-19 CNS = test system: SNB-19 CNS

SMILES | TGI (K-562 leukemia) [µM] | TGI (SF-268 CNS) [µM] | TGI (SF-539 CNS) [µM] | TGI (HCT-116 colon) [µM] | TGI (ACHN renal) [µM] | TGI (NCI-H23 lung) [µM] | TGI (U251 CNS) [µM] | TGI (HL-60(TB) leukemia) [µM] | TGI (KM12 colon) [µM] | TGI (SNB-19 CNS) [µM] | GI50 (K-562 leukemia) [µM] | GI50 (SF-268 CNS) [µM] | GI50 (SF-539 CNS) [µM] | GI50 (HCT-116 colon) [µM] | GI50 (ACHN renal) [µM] | GI50 (NCI-H23 lung) [µM] | GI50 (U251 CNS) [µM] | GI50 (HL-60(TB) leukemia) [µM] | GI50 (KM12 colon) [µM] | GI50 (SNB-19 CNS) [µM]
CCOC(=O)C(C(=O)OCC)=C1C=C(c2ccccc2)c2ccccc21 | > 100 | > 100 | > 100 | > 100 | > 100 | > 100 | > 100 | 92 | > 100 | > 100 |  |  |  |  |  |  |  |  |  | 
COC(=O)C1c2cc3c(c(O)c2CCC1(C)O)C(=O)c1c(O)cc2c(c1C3=O)OC1OC2(C)C(O)C(N(C)C)C1O (stereo not given) | 1.03 | 11.1 | 3.88 | 24.2 | 1.17 | 1.99 | 1.71 | 2.8 | 1.52 | 1.39 |  |  |  |  |  |  |  |  |  | 
NS(=O)(=O)c1ccc(N=Nc2c(O)[nH]c3ccc(C(=O)NCCCn4ccnc4)cc23)cc1 | > 25 | > 25 | > 25 | > 25 | > 25 | > 25 | > 25 | > 25 | > 25 | > 25 | > 25 | > 25 | > 25 | > 25 | > 25 | > 25 | > 25 | > 25 | > 25 | > 25
Cc1cc(O)ccc1C1(c2ccc(O)cc2C)OC(=O)c2ccccc21 | > 100 | 43.9 | 33.5 | 33.7 | 31.8 | 33.4 | 36.6 | 64.2 | 37.7 | 35.2 | 28 | 19 | 17.4 | 18.6 | 16 | 16.6 | 19.9 | 22.8 | 18.8 | 18.7
Cc1nc2ccc(-n3ncc(C(=O)c4cc5ccccc5[nH]4)c3N)cc2[nH]1 | > 100 | > 100 | 10.9 | > 100 | > 100 | > 100 | > 100 | 45.9 | 43.1 | > 100 | 3.07 | 6.63 | 1.17 | 4.51 | 5.73 | 15.9 | 1.44 | 11.9 | 3.53 | 15.4
Cc1ccc(C2=NN(c3ccc(S(=O)(=O)NC(=O)NCc4ccccc4)cc3)C(c3ccc(N(C)C)cc3)C2)c(C)c1 (stereo not given) | > 100 | 45.1 | 6.02 | 14.9 | > 100 | 17.8 | 16 | 11.9 | 15.4 | > 100 | 3.51 | 4.37 | 2.43 | 4 | 3.97 | 3.6 | 3.53 | 3.02 | 3.49 | 4.6
Cc1[nH]c(C(=O)Nc2cccc(OC3CCNCC3)c2)c(Cl)c1Cl | 4.53 | 3.75 | 3.06 | 3.24 | 3.17 | 5.54 | 4.19 | 4.08 | 3.73 | 5.18 | 1.76 | 1.77 | 1.64 | 1.65 | 1.75 | 2.14 | 1.93 | 1.91 | 1.93 | 2.11
CCOC(=O)C1=C(C)NC2SC(=O)/C(=C\c3cccc(Cl)c3)N2C1c1ccccc1 (stereo not given) | > 100 | > 100 | > 100 | > 100 | > 100 | > 100 | > 100 | > 100 | > 100 | > 100 | > 100 | > 100 | > 100 | > 100 | > 100 | > 100 | > 100 | > 100 | > 100 | > 100
COc1cc(/C=C2\CCC/C(=C\c3cc(CN4CCCC4)c(O)c(OC)c3)C2=O)cc(CN2CCCC2)c1O | 16.9 | 16.3 | 3.63 | 3.36 | 3.43 | 19.8 | 11.2 | 5.75 | 7.15 | 20.8 | 3 | 4.53 | 1.72 | 1.66 | 1.71 | 4.81 | 3.03 | 2.15 | 2.73 | 8.21
Cn1cc(-c2csc(-c3ccccc3)n2)c2cccnc21 | 48.9 | 43 | 28.3 | 26.7 | 52.3 | 38 | 28 | 34 | 25 | 47.8 | 13.9 | 16.8 | 14.2 | 13.8 | 17.1 | 16.2 | 13.6 | 9.4 | 12.5 | 15.9
CCN(N=O)C1C2(CCCC2)NC(=O)C12CCCC2 (stereo not given) | > 100 | > 100 | > 100 | > 100 | > 100 | > 100 | > 100 | > 100 | > 100 | > 100 |  |  |  |  |  |  |  |  |  | 
